Reference: patent US6737383B1, “Herbicidal oxadiazolidines” (priority 1999, dated 2004)

Tests used:
bamyardgrass = assay: Test B flood test barnyardgrass; assay type: in vivo, Echinochloa crus-galli
Procedure, shortened: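 Read-out is a visual response score from 0 (no effect) to 10 (complete control), assigned by comparison with untreated controls. Treatment was applied at the 2-leaf stage, and plants stayed in the greenhouse for twelve to sixteen days before scoring.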

blackgrass = assay: Test E blackgrass; assay type: in vivo, Alopecurus myosuroides; conditions: Preemergence
cocklebur = assay: Test B pre/postemergence cocklebur; assay type: in vivo, Xanthium strumarium
Procedure, shortened: (§1)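 Test chemicals in a non-phytotoxic solvent mixture with surfactant were sprayed preemergence onto planted seeds and postemergence onto plants 2 to 18 cm tall (1- to 4-leaf stage). After twelve to sixteen days in a greenhouse, injury was visually rated against untreated controls from 0 (no effect) to 10 (complete control).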

rape = assay: Test B pre/postemergence rape; assay type: in vivo, Brassica napus
Procedure, shortened: as §1

winter wheat [1] = assay: Test E winter wheat; assay type: in vivo, Triticum aestivum; conditions: Postemergence
Procedure, shortened: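 Postemergence: 60:40 sandy loam/greenhouse potting mix, 1- to 4-leaf stage. Formulation: solvent plus surfactant. Assessment: visual comparison with untreated controls at ~21–28 days.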

winter barley = assay: Test E winter barley; assay type: in vivo, Hordeum vulgare; conditions: Preemergence
sugar beet = assay: Test B pre/postemergence sugar beet; assay type: in vivo, Beta vulgaris
Procedure, shortened: as §1

Italian ryegrass = assay: Test E Italian ryegrass; assay type: in vivo, Lolium multiflorum; conditions: Preemergence
wild oat = assay: Test E wild oat; assay type: in vivo, Avena fatua; conditions: Preemergence
green foxtail = assay: Test E green foxtail; assay type: in vivo, Setaria viridis; conditions: Preemergence
winter wheat [2] = assay: Test E winter wheat; assay type: in vivo, Triticum aestivum; conditions: Preemergence
[3] = Postemergence, Rate 62 g/ha, scale 0 to 10, 0 is no effect, 10 is complete control
[4] = Rate 500 g/ha, listed under Postemergence (flood test species), scale 0 to 10, 0 no effect, 10 complete control
[5] = Rate 500 g/ha, 0 to 100 scale where 0 is no effect and 100 is complete control
[6] = Rate 1000 g/ha, 0 to 100 scale where 0 is no effect and 100 is complete control
[7] = Postemergence, Rate 250 g/ha, scale 0 to 10, 0 no effect, 10 complete control
[8] = Preemergence, Rate 62 g/ha, scale 0 to 10 (0 no effect, 10 complete control)
[9] = Preemergence, Rate 125 g/ha, scale 0 to 10 (0 no effect, 10 complete control)
[10] = Preemergence, Rate 250 g/ha, scale of 0 to 10 where 0 is no effect and 10 is complete control
[11] = Preemergence, Rate 500 g/ha, scale 0 (no effect) to 10 (complete control)
[12] = Rate 125 g/ha, Postemergence, scale 0 to 10, 0 no effect, 10 complete control
[13] = Rate 500 g/ha, Postemergence, scale 0 to 10, 0 no effect, 10 complete control
[14] = Rate 125 g/ha, 0 to 100 scale (0 no effect, 100 complete control)
[15] = Rate 500 g/ha, 0 to 100 scale (0 no effect, 100 complete control)
[16] = Postemergence, Rate 125 g/ha, scale 0 to 10, 0 is no effect, 10 is complete control
[17] = Rate 62 g/ha, Postemergence, scale of 0 to 10 where 0 is no effect and 10 is complete control
[18] = Preemergence, Rate 500 g/ha, scale of 0 to 10 where 0 is no effect and 10 is complete control

Cc1ccccc1-n1c(=O)on(C(=O)N(c2cc(F)cc(F)c2)C(C)C)c1=O [Compound 67]
Barnyardgrass plant response rating (bamyardgrass; [3]): 0 | Barnyardgrass plant response rating (bamyardgrass; Rate 125 g/ha, Postemergence section (flood test species), scale 0 to 10, 0 no effect, 10 complete control): 0 | Barnyardgrass plant response rating (bamyardgrass; [4]): 0 | Barnyardgrass plant response rating (bamyardgrass; flood test, listed under Postemergence, Rate 250 g/ha, scale 0 to 10, 0 no effect, 10 complete control): 0 | Plant response rating, Blackgrass (blackgrass; Rate 250 g/ha, 0 to 100 scale): 10 | Plant response rating, Blackgrass (blackgrass; [5]): 20 | Plant response rating, Blackgrass (blackgrass; [6]): 40 | Cocklebur plant response rating (cocklebur; [3]): 0 | Cocklebur plant response rating (cocklebur; [7]): 1 | Cocklebur plant response rating (cocklebur; [8]): 0 | Plant response rating, Cocklebur (cocklebur; [9]): 0 | Plant response rating, Cocklebur (cocklebur; [10]): 0 | Cocklebur plant response rating (cocklebur; [11]): 0 | Cocklebur plant response rating (cocklebur; [12]): 0 | Cocklebur plant response rating (cocklebur; [13]): 1 | Rape plant response rating (rape; [3]): 0 | Rape plant response rating (rape; [7]): 0 | Rape plant response rating (rape; [8]): 0 | Plant response rating, Rape (rape; [9]): 0 | Plant response rating, Rape (rape; [10]): 0 | Rape plant response rating (rape; [11]): 0 | Rape plant response rating (rape; [12]): 0 | Rape plant response rating (rape; [13]): 2 | Plant response rating, Wheat (winter) (winter wheat [1]; Rate 250 g/ha, 0 to 100 scale (0 no effect, 100 complete control)): 20 | Plant response rating, Wheat (winter) (winter wheat [1]; Rate 1000 g/ha, 0 to 100 scale, 0 is no effect and 100 is complete control): 40 | Plant response rating, Wheat (winter) (winter wheat [1]; Rate 500 g/ha, 0 to 100 scale, 0 no effect, 100 complete control): 30 | Plant response rating, Barley (winter) (winter barley; Rate 250 g/ha, 0 to 100 scale): 20 | Plant response rating, Barley (winter) (winter barley; [5]): 40 | Plant response rating, Barley (winter) (winter barley; [6]): 40 | Sugarbeets plant response rating (sugar beet; [3]): 0 | Sugarbeets plant response rating (sugar beet; [7]): 0 | Sugarbeets plant response rating (sugar beet; [8]): 0 | Plant response rating, Sugarbeets (sugar beet; [9]): 0 | Plant response rating, Sugarbeets (sugar beet; [10]): 0 | Sugarbeets plant response rating (sugar beet; [11]): 3 | Sugarbeets plant response rating (sugar beet; [12]): 0 | Sugarbeets plant response rating (sugar beet; [13]): 2 | Plant response rating, I. Ryegrass (Italian ryegrass; Rate 250 g/ha, 0 to 100 scale): 40 | Plant response rating, I. Ryegrass (Italian ryegrass; [5]): 30 | Plant response rating, I. Ryegrass (Italian ryegrass; [6]): 50 | Plant response rating, Wild oat (wild oat; [5]): 40 | Plant response rating, Wild oat (wild oat; [6]): 50 | Plant response rating, Green foxtail (green foxtail; Rate 250 g/ha, 0 to 100 scale): 30 | Plant response rating, Green foxtail (green foxtail; [5]): 55 | Plant response rating, Green foxtail (green foxtail; [6]): 60 | Plant response rating, Wheat (winter) (winter wheat [2]; Rate 250 g/ha, 0 to 100 scale): 10 | Plant response rating, Wheat (winter) (winter wheat [2]; [5]): 10 | Plant response rating, Wheat (winter) (winter wheat [2]; [6]): 20

CCC(CC)n1c(=O)on(C(=O)N(c2ccccc2)C(C)C)c1=O [Compound 354]
Plant response rating, Barnyardgrass (bamyardgrass; Postemergence (flood test), Rate 125 g/ha, scale 0 to 10, 0 is no effect, 10 is complete control): 4 | Barnyardgrass plant response rating (bamyardgrass; Rate 62 g/ha, Postemergence (flood test species), scale of 0 to 10 where 0 is no effect and 10 is complete control): 0 | Plant response rating, Barnyardgrass (0 to 10 scale, 0 is no effect, 10 is complete control) (bamyardgrass; Rate 62 g/ha, flood test species, Pre-emergence, visual evaluation after twelve to sixteen days): 0 | Barnyardgrass plant response rating (bamyardgrass; Rate 125 g/ha, Pre-emergence, flood test species, scale 0 to 10 where 0 is no effect and 10 is complete control): 0 | Plant response rating, Barnyardgrass (bamyardgrass; Rate 250 g/ha, Postemergence (flood test species), scale of 0 to 10 where 0 is no effect and 10 is complete control): 7 | Barnyardgrass plant response rating (bamyardgrass; Rate 250 g/ha, Pre-emergence, flood-test species, scale 0 to 10, 0 is no effect, 10 is complete control): 0 | Plant response rating, Barnyardgrass (bamyardgrass; [4]): 9 | Barnyardgrass plant response rating (bamyardgrass; Rate 500 g/ha, Pre-emergence, flood test species, scale 0 to 10 (0 no effect, 10 complete control)): 0 | Plant response rating, Blackgrass (blackgrass; [14]): 50 | Plant response rating, Blackgrass (blackgrass; Rate 250 g/ha, 0 to 100 scale): 55 | Plant response rating, Blackgrass (blackgrass; [15]): 30 | Plant response rating, Cocklebur (cocklebur; [16]): 0 | Plant response rating, Cocklebur (cocklebur; [8]): 0 | Cocklebur plant response rating (0 to 10 scale) (cocklebur; Preemergence, Rate 125 g/ha): 0 | Cocklebur plant response rating (cocklebur; [10]): 0 | Cocklebur plant response rating (cocklebur; [17]): 0 | Plant response rating, Cocklebur (cocklebur; [13]): 1 | Plant response rating, Rape (rape; [16]): 0 | Plant response rating, Rape (rape; [8]): 0 | Rape plant response rating (0 to 10 scale) (rape; Preemergence, Rate 125 g/ha): 1 | Rape plant response rating (rape; [10]): 5 | Rape plant response rating (rape; [18]): 5 | Rape plant response rating (rape; [17]): 0 | Plant response rating, Rape (rape; [13]): 4 | Plant response rating, Wheat (winter) (winter wheat [1]; Rate 125 g/ha, 0 to 100 scale, 0 is no effect, 100 is complete control): 30 | Plant response rating, Wheat (winter) (winter wheat [1]; Rate 250 g/ha, 0 to 100 scale, 0 is no effect, 100 is complete control): 40 | Plant response rating, Wheat (winter) (winter wheat [1]; Rate 500 g/ha, 0 to 100 scale, 0 is no effect, 100 is complete control): 50 | Plant response rating, Barley (winter) (winter barley; [14]): 20 | Plant response rating, Barley (winter) (winter barley; Rate 250 g/ha, 0 to 100 scale, 0 no effect, 100 complete control): 30 | Plant response rating, Barley (winter) (winter barley; [15]): 40 | Plant response rating, Sugarbeets (sugar beet; [16]): 1 | Plant response rating, Sugarbeets (sugar beet; [8]): 0 | Sugarbeets plant response rating (0 to 10 scale) (sugar beet; Preemergence, Rate 125 g/ha): 0 | Sugarbeets plant response rating (sugar beet; [10]): 2 | Sugarbeets plant response rating (sugar beet; [18]): 6 | Sugarbeets plant response rating (sugar beet; [17]): 0 | Plant response rating, Sugarbeets (sugar beet; [13]): 3 | Plant response rating, I. Ryegrass (Italian ryegrass; [14]): 50 | Plant response rating, I. Ryegrass (Italian ryegrass; Rate 250 g/ha, 0 to 100 scale): 60 | Plant response rating, I. Ryegrass (Italian ryegrass; [15]): 90 | Plant response rating, Wild oat (wild oat; [14]): 0 | Plant response rating, Wild oat (wild oat; Rate 250 g/ha, 0 to 100 scale): 30 | Plant response rating, Wild oat (wild oat; [15]): 40 | Plant response rating, Green foxtail (green foxtail; [14]): 85 | Plant response rating, Green foxtail (green foxtail; Rate 250 g/ha, 0 to 100 scale): 80 | Plant response rating, Green foxtail (green foxtail; [15]): 100 | Plant response rating, Wheat (winter) (winter wheat [2]; [14]): 30 | Plant response rating, Wheat (winter) (winter wheat [2]; Rate 250 g/ha, 0 to 100 scale): 50 | Plant response rating, Wheat (winter) (winter wheat [2]; [15]): 60
